Assay results taken from patent US20260102356A1, “METHOD FOR LOADING DIMERIC CD24 INTO HEK293 CELL EXTRACELLULAR VESICLES WITH ADAM10 GENE KNOCKED OUT” (Exocure Sweden AB, priority 2022, published 2026).
Where “and” joins values, the source holds several entries; their conditions need not be identical. Identical values can stand only once.

Legend:
Type in all cases: cell-based, human
PBMCs [1] = assay: PBMC inflammation model (anti-CD3/anti-CD28), IFN-γ in supernatant, Example 2; details: anti_hCD3 + anti_hCD28 1 μg/mL, treatment 10 μg/mL, 72 h
Procedure: (§1) Detection of the immunosuppressive activity of different EVs and proteins in a PBMC inflammation model: PBMCs were used for the experiment. An inflammation model was established by using 1 μg/ml anti-human CD3 Antibody (coated) and 1 μg/ml anti-human CD28 Antibody (free). The positive drug (dexamethasone), free CD24-Fc protein, and various doses of engineered dimeric CD24-loaded EV and monomer CD24-loaded EV were administered for 72 h, and their inhibitory activity on the inflammatory response of PBMCs was assessed.

PBMCs [2] = assay: PBMC inflammation model (anti-CD3/anti-CD28), IFN-γ in supernatant, Example 4; details: for IFN-γ_pg/mL-Mean / Detected IFN-γ concentration: PBMC supernatant, anti_hCD3 + anti_hCD28 1 μg/mL, treatment 10 μg/mL, 72 h; for Detected IFN-γ concentration: single replicates
Procedure: as §1, with “using […] anti-human CD3” for “using 1 μg/ml anti-human CD3”, “(dexamethasone), free ApoE protein, and” for “(dexamethasone), free CD24-Fc protein, and”, “engineered dimeric ApoE-loaded EV were” for “engineered dimeric CD24-loaded EV and monomer CD24-loaded EV were”

PBMCs [3] = assay: PBMC inflammation model (anti-CD3/anti-CD28), IFN-γ in supernatant, Example 6
Procedure: • (1) Preparation of dimeric CD24-Exosomes: The plasmid construction, cell line screening and exosome preparation processes were consistent with those in Example 1. • (2) Loading of MyD88 Inhibitor Polypeptide: dimeric CD24 exosomes were mixed well with MyD88 inhibitor polypeptide (1 mg of MyD88 added to 1E+12 exosome particles). The solution was adjusted to a pH of 8.0 (or 9.0, 10.0) with Na2CO3, and then purified using Capto core700 to remove free MyD88 inhibitor polypeptide. The flow-through was collected to obtain CD24 exosomes loaded with MyD88 inhibitor polypeptide. The loading amount of MyD88 inhibitor polypeptide was assessed using ELISA (peptide loading technology referenced in patent: 202111263036.5). • (3) Detection of the immunosuppressive activity of different EVs and proteins in a PBMC inflammation model: PBMCs were used for the experiment. An inflammation model was established by using 1 μg/ml anti-human CD3 Antibody (coated) and 1 μg/ml anti-human CD28 Antibody (free). The positive drug (dexamethasone), free CD24-Fc fusion protein, and various doses of engineered dimeric CD24 loaded-EV and engineered dimeric CD24+MyD88 inhibitor polypeptide loaded-EV were administered for 72 h or 120 h, and their inhibitory activity on the inflammatory response of PBMCs was assessed

[4] = in vitro PBMC inflammation model

| Compound | IFN-γ_pg/mL-Mean (PBMCs [1]) [pg/mL] | Detected IFN-γ concentration (PBMCs [1]; single replicates) | IFN-γ_pg/mL-Mean (PBMCs [2]) [pg/mL] | Detected IFN-γ concentration (PBMCs [2]) | IFN-γ_pg/mL-Mean (PBMCs [3]; PBMC supernatant, treatment time 72 h, treatment 10 μg/mL) [pg/mL] | Detected IFN-γ concentration (PBMCs [3]; PBMC supernatant, treatment time 72 h, treatment 10 μg/mL, single replicates) | inflammation inhibitory activity compared to the model group (PBMCs [2]; [4]) | inflammation inhibitory activity compared to the model group (PBMCs [3]; [4]) |
| --- | --- | --- | --- | --- | --- | --- | --- | --- |
| C[C@@H]1C[C@H]2[C@@H]3CCC4=CC(=O)C=C[C@]4(C)[C@@]3(F)[C@@H](O)C[C@]2(C)[C@@]1(O)C(=O)CO [Dexamethasone, dexamethasone] | 6.0 | 5.62 pg/mL and 5.78 pg/mL and 6.51 pg/mL | 5.8 | 5.5 pg/mL and 5.8 pg/mL and 6.2 pg/mL | 4.5 | 4.32 pg/mL and 4.76 pg/mL and 4.5 pg/mL |  |  |
| ApoE: free ApoE protein, comparator |  |  | 18092.0 | 18563 pg/mL and 17689 pg/mL and 18024 pg/mL |  |  | better inflammation inhibitory activity | better inflammation inhibitory activity |
